This is an account of results in patent publication US20070299092A1 (Wyeth, priority 2004, published 2007).

Experiment [1] has as its system Human umbilical vein endothelial cells (HUVEC). The experiment is described as follows: HUVEC proliferation assay, VEGF-dependent growth ([3H]-thymidine incorporation). In kind it is cell-based. How it is done:
Cells were plated into 96-well dishes (4000 cells per well) and allowed to attach overnight. HUVEC were rinsed one time with 100 μl of EBMc-V (EBM supplemented with all above components except serum or VEGF), then 50 ul of EBMc-V was added to cells. Compounds were prepared at 200× stocks in DMSO, diluted into EBMc-V media as 4× stocks, then 50 ul added to appropriate wells. Finally, 100 μl of 2×VEGF (100 ng/ml prepared in EBMc-V; final 50 ng/ml VEGF) was added to all VEGF-treated wells. EBMc-V (no VEGF) was added to negative control wells. Parallel compound-treated plates were prepared except that 100 μl of EGM2 media containing 2% serum but lacking VEGF (EGMc-V) was added. Cells were incubated for 4-5 days at 37° C.
DNA synthesis was assessed by thymidine incorporation. Cells were incubated for 5 hours in 1 μCi of [^3H]-thymidine (PerkinElmer) by addition of 10 ul of 0.1 μCi/ul thymidine prepared in PBS to each well. After incubation, media was aspirated and the cells trypsinized and collected onto a mat using a vacuum-based Micro Cell Harvester (Skatron). [^3H]-thymidine was counted in a liquid scintillation counter. Compounds evaluated for ability to inhibit VEGF-dependent growth of human umbilical vein endothelial cells (HUVEC).

Experiment [2] addresses T1, human KDR (VEGF-receptor-2) (Homo sapiens, UniProt P35968).
T1 construct: beginning at Met-806; (5′-ATG GAT CCA GAT GM CTC CCA TTG) and ending at Val-1356; made in house
As to the kind of experiment: KDR kinase enzyme assay (DELFIA, KDR-IC-Flag, poly(Glu4-Tyr) peptide). The settings on record: for inhibition at 0.1 µM: Concentration 100 nM; for inhibition at 1 µM: Concentration 1000 nM. Format: biochemical.

In experiment [3] the target is KDR (Homo sapiens, UniProt P35968). As to the kind of experiment: cell-based. The settings on record: for inhibition at 1 µM: read-out: % Inhibition of KDR kinase autophosphorylation in KDR15 cells, compound conc. 1000 nM.
Sequence of KDR (P35968 20-1356): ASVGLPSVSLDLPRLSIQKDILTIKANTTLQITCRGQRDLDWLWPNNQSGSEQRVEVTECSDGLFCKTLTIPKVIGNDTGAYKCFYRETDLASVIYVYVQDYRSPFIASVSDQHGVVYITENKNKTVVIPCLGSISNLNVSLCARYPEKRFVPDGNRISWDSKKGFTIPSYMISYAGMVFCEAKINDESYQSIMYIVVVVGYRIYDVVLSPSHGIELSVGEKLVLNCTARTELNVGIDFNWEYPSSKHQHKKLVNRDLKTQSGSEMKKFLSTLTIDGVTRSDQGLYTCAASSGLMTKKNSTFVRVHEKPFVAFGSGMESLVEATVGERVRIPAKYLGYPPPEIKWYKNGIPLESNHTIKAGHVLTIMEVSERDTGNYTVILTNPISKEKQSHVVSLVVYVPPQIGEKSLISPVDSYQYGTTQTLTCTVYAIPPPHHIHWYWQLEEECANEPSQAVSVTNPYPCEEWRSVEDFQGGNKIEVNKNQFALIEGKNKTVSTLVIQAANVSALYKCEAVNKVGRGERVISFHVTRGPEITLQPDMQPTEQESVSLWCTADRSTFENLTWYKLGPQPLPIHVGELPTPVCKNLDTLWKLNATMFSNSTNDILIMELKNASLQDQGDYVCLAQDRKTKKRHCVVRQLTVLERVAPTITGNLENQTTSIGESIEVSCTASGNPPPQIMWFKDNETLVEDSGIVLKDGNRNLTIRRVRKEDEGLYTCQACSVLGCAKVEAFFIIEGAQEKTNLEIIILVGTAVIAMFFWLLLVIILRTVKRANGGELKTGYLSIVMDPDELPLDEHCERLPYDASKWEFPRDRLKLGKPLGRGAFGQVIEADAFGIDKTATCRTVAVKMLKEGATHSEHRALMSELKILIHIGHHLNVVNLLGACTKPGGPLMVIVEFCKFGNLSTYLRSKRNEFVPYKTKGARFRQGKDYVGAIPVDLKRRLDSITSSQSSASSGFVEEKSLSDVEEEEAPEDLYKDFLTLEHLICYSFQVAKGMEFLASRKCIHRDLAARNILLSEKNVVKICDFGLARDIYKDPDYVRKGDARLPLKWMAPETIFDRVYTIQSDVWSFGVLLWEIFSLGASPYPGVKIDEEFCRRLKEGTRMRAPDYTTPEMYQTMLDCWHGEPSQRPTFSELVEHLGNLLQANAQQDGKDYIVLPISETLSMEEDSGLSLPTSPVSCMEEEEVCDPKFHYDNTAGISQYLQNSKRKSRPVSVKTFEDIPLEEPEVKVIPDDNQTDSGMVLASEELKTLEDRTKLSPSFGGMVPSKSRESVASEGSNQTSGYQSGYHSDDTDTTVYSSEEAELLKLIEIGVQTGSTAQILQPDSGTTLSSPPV
Setting [4] is: ATP conc. 10 μM, read-out: % Inhibition.
[5] abbreviates: ATP conc. 1000 μM, read-out: % Inhibition.

“And” between values parts separate entries of the source, which are not always exact repeats. Equal values may be shown once. Read-outs that look alike come from different tables or passages of the source.

T1 sequence (P35968 806-1356): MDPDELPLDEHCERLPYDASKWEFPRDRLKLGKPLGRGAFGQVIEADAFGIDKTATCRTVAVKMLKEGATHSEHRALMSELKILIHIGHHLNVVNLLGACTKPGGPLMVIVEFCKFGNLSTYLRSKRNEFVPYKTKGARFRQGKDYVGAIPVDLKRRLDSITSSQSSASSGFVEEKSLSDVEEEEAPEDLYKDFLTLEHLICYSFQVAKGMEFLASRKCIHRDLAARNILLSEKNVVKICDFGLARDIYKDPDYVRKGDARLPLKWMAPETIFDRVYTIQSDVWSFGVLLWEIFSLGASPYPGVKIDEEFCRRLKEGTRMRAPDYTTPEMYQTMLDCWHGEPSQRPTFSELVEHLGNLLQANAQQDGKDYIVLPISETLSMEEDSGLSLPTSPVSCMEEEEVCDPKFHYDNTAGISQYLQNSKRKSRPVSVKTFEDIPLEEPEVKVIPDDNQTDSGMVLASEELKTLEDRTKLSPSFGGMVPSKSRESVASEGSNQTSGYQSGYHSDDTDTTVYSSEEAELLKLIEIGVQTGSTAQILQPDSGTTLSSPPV

For the compound `CCC1=CC(=O)C(Nc2ncnc3cc(OC)c(OC)cc23)=CC1=O` [Example 8, 2-[(6,7-dimethoxy-4-quinazolinyl)amino]-5-ethylbenzo-1,4-quinone], the inhibition at 10 µM in experiment [1] (Homo sapiens, HUVEC, conc. 10000 nM) is 87%. The “% Inhibition of VEGF-dependent growth of HUVEC” value was 30% and 51% and 37% in experiment [1] (conc. 1000 nM); 98% and 89% in experiment [1] (conc. 10000 nM). The IC50 in experiment [2] (ATP conc. 10 μM) is 0.175 µM and 0.177 µM; in experiment [2] (ATP conc. 100 μM), 0.2 µM; in experiment [2] (ATP conc. 1000 μM) it was 0.239 µM; in experiment [3] (IC50 (nM), inhibition of KDR kinase autophosphorylation in KDR15 cells, KDR15 cells, VEGF 50 ng/ml, phospho-KDR-Y996 immunoblot) it was 172 nM. The inhibition at 0.1 µM in experiment [2] (setting [4]) is 51%. In addition, the inhibition at 1 µM came to 82% in experiment [2] (setting [4]) and 80% in experiment [2] (setting [5]). For the same compound, in experiment [3] (read-out: % Inhibition of KDR kinase autophosphorylation in KDR15 cells, compound conc. 500 nM), the inhibition at 0.5 µM was 25%.
Take `COCCOc1cc2ncnc(NC3=CC(=O)C(Oc4cccc(Cl)c4)=CC3=O)c2cc1OC` [Example 33, 2-(3-chlorophenoxy)-5-{[6-methoxy-7-(2-methoxyethoxy)quinazolin-4-yl]amino}benzo-1,4-quinone]: the inhibition at 0.1 µM in experiment [2] (ATP conc. 10 μM) is 84%. For the same compound, the results for the inhibition at 1 µM in experiment [2] (ATP conc. 10 μM), in experiment [2] (ATP conc. 1000 μM) and in experiment [3] were 96%, 98% and 19%, respectively.
Regarding `COCCOc1cc2ncnc(NC3=CC(=O)C(Oc4cccc(C(C)=O)c4)=CC3=O)c2cc1OC` [Example 34, 2-(3-acetylphenoxy)-5-{[6-methoxy-7-(2-methoxyethoxy)quinazolin-4-yl]amino}benzo-1,4-quinone], the inhibition at 0.1 µM in experiment [2] (setting [4]) was found to be 55%. In addition, the inhibition at 1 µM is 95% in experiment [2] (setting [4]), 97% in experiment [2] (setting [5]) and 12% in experiment [3].
Take `COCCOc1cc2ncnc(NC3=CC(=O)C(Oc4ccc(SC)cc4)=CC3=O)c2cc1OC` [Example 35, 2-{[6-methoxy-7-(2-methoxyethoxy)quinazolin-4-yl]amino}-5-[4-(methylthio)phenoxy]benzo-1,4-quinone]: in experiment [2] (ATP conc. 10 μM), the inhibition at 0.1 µM amounted to 87%. Moreover, the inhibition at 1 µM in experiment [2] (ATP conc. 10 μM) worked out at 96%; in experiment [2] (ATP conc. 1000 μM) it was 98%; in experiment [3], 39%.
Consider `CCOC(=O)Cc1ccc(OC2=CC(=O)C(Nc3ncnc4cc(OCCOC)c(OC)cc34)=CC2=O)cc1` [Example 37, ethyl {4-[(4-{[6-methoxy-7-(2-methoxyethoxy)quinazolin-4-yl]amino}-3,6-dioxocyclohexa-1,4-dien-1-yl)oxy]phenyl}acetate], for which, in experiment [2] (setting [4]), the inhibition at 0.1 µM worked out at 89% and the inhibition at 1 µM is 93%. The inhibition at 1 µM in experiment [3] was determined as 11%.
Turning to `COCCOc1cc2ncnc(NC3=CC(=O)C(Oc4ccc(CCC(=O)OC)cc4)=CC3=O)c2cc1OC` [Example 40, methyl 3-{4-[(4-{[6-methoxy-7-(2-methoxyethoxy)quinazolin-4-yl]amino}-3,6-dioxocyclohexa-1,4-dien-1-yl)oxy]phenyl}propanoate], in experiment [2] (setting [4]), the inhibition at 0.1 µM amounted to 92% and the inhibition at 1 µM was 94%. The inhibition at 1 µM in experiment [3] came out at 110%.
`COCCOc1cc2ncnc(NC3=CC(=O)C(Oc4ccc(C(=O)OC)cc4)=CC3=O)c2cc1OC` [Example 42, methyl 4-[(4-{[6-methoxy-7-(2-methoxyethoxy)quinazolin-4-yl]amino}-3,6-dioxocyclohexa-1,4-dien-1-yl)oxy]benzoate]: in experiment [2] (setting [4]), the inhibition at 0.1 µM stood at 92% and the inhibition at 1 µM is 94%. In addition, the inhibition at 1 µM in experiment [3] was 64%.
Compound `CCOC(=O)c1c(C)[nH]c2ccc(OC3=CC(=O)C(Nc4ncnc5cc(OCCOC)c(OC)cc45)=CC3=O)cc12` [Example 45, ethyl 5-[(4-{[6-methoxy-7-(2-methoxyethoxy)quinazolin-4-yl]amino}-3,6-dioxocyclohexa-1,4-dien-1-yl)oxy]-2-methyl-1H-indole-3-carboxylate] came in with an IC50 in experiment [2] (ATP conc. 10 μM) of 0.0026 µM. Besides, in experiment [2] (setting [4]), the inhibition at 0.1 µM stood at 92% and the inhibition at 1 µM amounted to 93%. In addition, the inhibition at 1 µM in experiment [3] amounted to 99%.
As to `COCCOc1cc2ncnc(NC3=CC(=O)C(Oc4ccc(Br)cc4)=CC3=O)c2cc1OC` [Example 46, 2-(4-bromophenoxy)-5-{[6-methoxy-7-(2-methoxyethoxy)quinazolin-4-yl]amino}benzo-1,4-quinone], in experiment [2] (setting [4]), the inhibition at 0.1 µM stood at 93% and the inhibition at 1 µM worked out at 94%. In addition, the inhibition at 1 µM in experiment [3] was found to be 79%.
For `COCCOc1cc2ncnc(NC3=CC(=O)C(Oc4ccc(C)cc4-c4ccno4)=CC3=O)c2cc1OC` [Example 47, 2-(2-isoxazol-5-yl-4-methylphenoxy)-5-{[6-methoxy-7-(2-methoxyethoxy)quinazolin-4-yl]amino}benzo-1,4-quinone], in that order: 86%, 94% and 66%.
As to `COCCOc1cc2ncnc(NC3=CC(=O)C(Oc4ccc(C(=O)OCc5ccccc5)cc4)=CC3=O)c2cc1OC` [Example 48, benzyl 4-[(4-{[6-methoxy-7-(2-methoxyethoxy)quinazolin-4-yl]amino}-3,6-dioxocyclohexa-1,4-dien-1-yl)oxy]benzoate], in experiment [2] (setting [4]), the inhibition at 0.1 µM was found to be 86% and the inhibition at 1 µM was found to be 93%. In addition, the inhibition at 1 µM in experiment [3] was found to be 74%.
In experiment [2] (ATP conc. 10 μM), `COCCOc1cc2ncnc(NC3=CC(=O)C(Oc4ccc(C(=O)Cc5ccccc5)cc4)=CC3=O)c2cc1OC` [Example 49, 2-{[6-methoxy-7-(2-methoxyethoxy)quinazolin-4-yl]amino}-5-[4-(phenylacetyl)phenoxy]benzo-1,4-quinone] came in with an IC50 of 0.149 µM. In addition, the inhibition at 0.1 µM in experiment [2] (setting [4]) stood at 88%. The inhibition at 1 µM was determined as 93% in experiment [2] (setting [4]) and 90% in experiment [3].
For `COCCOc1cc2ncnc(NC3=CC(=O)C(Oc4ccc5cc(Br)ccc5c4)=CC3=O)c2cc1OC` [Example 51, 2-[(6-bromo-2-naphthyl)oxy]-5-{[6-methoxy-7-(2-methoxyethoxy)quinazolin-4-yl]amino}benzo-1,4-quinone], the inhibition at 0.1 µM in experiment [2] (setting [4]) turned out to be 91%. In addition, the inhibition at 1 µM was determined as 93% in experiment [2] (setting [4]) and 105% in experiment [3].
For `COCCOc1cc2ncnc(NC3=CC(=O)C(Oc4ccccc4OCc4ccccc4)=CC3=O)c2cc1OC` [Example 52, 2-[2-(benzyloxy)phenoxy]-5-{[6-methoxy-7-(2-methoxyethoxy)quinazolin-4-yl]amino}benzo-1,4-quinone], the inhibition at 0.1 µM in experiment [2] (setting [4]) turned out to be 91%. Besides, the inhibition at 1 µM in experiment [2] (setting [4]) was 95%; in experiment [3] it was 94%.
For the compound `COCCOc1cc2ncnc(NC3=CC(=O)C(Oc4ccc5c(c4)Cc4ccccc4-5)=CC3=O)c2cc1OC` [Example 53, 2-(9H-fluoren-2-yloxy)-5-{[6-methoxy-7-(2-methoxyethoxy)quinazolin-4-yl]amino}benzo-1,4-quinone], in experiment [2] (setting [4]), the inhibition at 0.1 µM stood at 90% and the inhibition at 1 µM was determined as 94%. Also, the inhibition at 1 µM in experiment [3] was 79%.
The matching figures for `COCCOc1cc2ncnc(NC3=CC(=O)C(Oc4ccc(CCN)cc4)=CC3=O)c2cc1OC` [Example 54, 2-[4-(2-aminoethyl)phenoxy]-5-{[6-methoxy-7-(2-methoxyethoxy)quinazolin-4-yl]amino}benzo-1,4-quinone]: -2%, 10% and -5%.
Turning to `COCCOc1cc2ncnc(NC3=CC(=O)C(N(C)c4cccc(F)c4)=CC3=O)c2cc1OC` [Example 74, 2-[(3-fluorophenyl)(methyl)amino]-5-{[6-methoxy-7-(2-methoxyethoxy)quinazolin-4-yl]amino}benzo-1,4-quinone], the inhibition at 0.1 µM in experiment [2] (setting [4]) turned out to be 27%. For the same compound, the inhibition at 1 µM in experiment [2] (setting [4]) came out at 89%; in experiment [2] (setting [5]), 84%; in experiment [3], 4%.
For `COCCOc1cc2ncnc(NC3=CC(=O)C(N(C)Cc4ccccc4)=CC3=O)c2cc1OC` [Example 82, 2-[benzyl(methyl)amino]-5-{[6-methoxy-7-(2-methoxyethoxy)quinazolin-4-yl]amino}benzo-1,4-quinone], in that order: 15%, 30%, 45% and 12%.
